System: retrogradely labeled D1-MSNs
Experiment: Striatal slice whole-cell recordings of retrogradely labeled MSNs
Type: cell-based, mice
Details: AAV8R12-G88P3-HA-hM3Dq-2A-EYFP; CNO 10 μM
From the text: Mice from different groups were anesthetized with […] isoflurane, and then decapitated. The brain was quickly extracted and placed in ice-cold N-methyl-D-glucamine (NMDG) cutting solution containing (in mM): 92 NMDG, 2.5 KCl, 25 NaHCO3, 1.25 NaH2PO4, 4.5 D-Glucose, 20 HEPES, 5 L-ascorbic acid, 3 Na-pyruvate, 2 Thiourea, 10 MgSO4, 0.5 CaCl2). The pH was adjusted to 7.2±0.1 using HCl and the osmolarity was adjusted to 305±5 mosmol/L using NMDG. The solution was bubbled with 95% O2/5% CO2 prior to use. Coronal striatum slices were cut in 250-[…] thickness with a vibratome slicer (Leica, VT1200 S), and then incubated in artificial cerebrospinal fluid (aCSF) saturated with 95% O2/5% CO2 for at least 45 min at 37° C. before recording. The aCSF contains (in mM) 125 NaCl, 1.25 KCl, 25 NaHCO3, 1.25 KH2PO4, 25 D-Glucose, 2 CaCl2) and 1 MgCl2, supplemented with 2 mM Na-pyruvate, 3 mM Myo-inositol and 0.4 mM L-ascorbic acid.
The acute striatum slice was transferred to the recording chamber with a constant perfusion of oxygenized aCSF at the rate of 3 ml/min. Neurons were visualized using an upright microscope (Olympus, BX-51) with a 40× water immersion objective at room temperature (˜25° C.). […] Neurons were quickly visualized under fluorescence microscope and then patch clamp were achieved under infrared light illumination and CCD camera. […]

## C[N+]1([O-])CCN(C2=Nc3cc(Cl)ccc3Nc3ccccc32)CC1 [CNO, clozapine N-oxide]
  excitability of transduced MSNs: augmentation of excitability

From patent US20250382588A1, “CHIMERIC AAV AND USES THEREOF” (priority 2023, published 2025)
